Among the data in doi:10.64898/2025.12.15.694443v1 (biorxiv, 2025) are IC50 and AC50 values, retold here.

Experiment [1] has as its target T1, ARAF^SSDD (ARAF^SSDD/MEK1) (Homo sapiens, UniProt P10398, G300S/Y301D/Y302D). The experiment is described as follows: TR-FRET MEK phosphorylation assay, bell-shaped fit. The experiment is classed as biochemical.
The target of experiment [2] is T2, CRAF^SSDD (CRAF^SSDD/MEK1) (Homo sapiens, UniProt P04049, Y340D/Y341D). The experiment is described as follows: TR-FRET MEK phosphorylation assay, bell-shaped fit. Format: biochemical. In general terms: In TR-FRET formats the signal depends on donor and acceptor labels being close together.
T2 sequence (P04049 314-618 Y340D/Y341D): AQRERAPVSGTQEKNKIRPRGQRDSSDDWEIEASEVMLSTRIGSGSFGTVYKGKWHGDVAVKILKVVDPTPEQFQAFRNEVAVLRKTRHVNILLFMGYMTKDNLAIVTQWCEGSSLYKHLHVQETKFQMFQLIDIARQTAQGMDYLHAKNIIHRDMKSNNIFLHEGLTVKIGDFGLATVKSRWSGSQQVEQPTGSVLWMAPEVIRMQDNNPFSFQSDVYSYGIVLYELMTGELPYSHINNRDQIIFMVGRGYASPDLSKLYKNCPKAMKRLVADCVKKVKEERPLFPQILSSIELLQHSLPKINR
T2 sequence (Q02750 whole entry S218A/S222A partner): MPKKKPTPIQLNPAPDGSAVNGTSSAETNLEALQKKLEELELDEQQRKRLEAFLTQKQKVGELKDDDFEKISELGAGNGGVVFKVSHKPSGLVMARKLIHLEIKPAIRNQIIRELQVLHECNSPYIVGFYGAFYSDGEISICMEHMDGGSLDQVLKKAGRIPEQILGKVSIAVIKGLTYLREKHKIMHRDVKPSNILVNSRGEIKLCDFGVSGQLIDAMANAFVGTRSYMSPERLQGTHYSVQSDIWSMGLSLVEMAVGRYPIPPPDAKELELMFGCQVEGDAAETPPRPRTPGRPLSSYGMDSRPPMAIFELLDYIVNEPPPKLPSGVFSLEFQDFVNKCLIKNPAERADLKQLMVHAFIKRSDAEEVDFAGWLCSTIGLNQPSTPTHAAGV
Experiment [3] deals with T2, CRAF^SSDD (CRAF^SSDD/MEK1). The experiment is described as follows: biochemical.
Experiment [4] concerns the target T1, ARAF^SSDD (ARAF^SSDD/MEK1). Description: biochemical.
Experiment [5] concerns the target T3, CRAF monomer complex (CRAF/MEK1 SASA) (Homo sapiens, UniProt P04049). Description: TR-FRET MEK phosphorylation assay, bell-shaped fit. The experiment is classed as biochemical.
Experiment [6] deals with BRAF monomer complex (BRAF/MEK1 SASA) (Homo sapiens, UniProt P15056). Description: TR-FRET MEK phosphorylation assay, bell-shaped fit. The experiment is classed as biochemical. To be noted: […] enzyme, […] ATP, […] MEK-B, […] DMSO; unreliable.
Chain of BRAF monomer complex (BRAF/MEK1 SASA) (P15056 445-723): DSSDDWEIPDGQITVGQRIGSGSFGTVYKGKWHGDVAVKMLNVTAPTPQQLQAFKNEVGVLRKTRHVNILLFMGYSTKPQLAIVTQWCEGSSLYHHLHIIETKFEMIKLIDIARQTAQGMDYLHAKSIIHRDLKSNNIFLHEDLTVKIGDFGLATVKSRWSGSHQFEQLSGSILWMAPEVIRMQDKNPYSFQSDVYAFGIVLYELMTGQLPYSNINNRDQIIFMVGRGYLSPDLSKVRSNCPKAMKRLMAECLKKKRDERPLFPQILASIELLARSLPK
Chain of BRAF monomer complex (BRAF/MEK1 SASA) (Q02750 whole entry S218A/S222A partner): as the sequence (Q02750 whole entry S218A/S222A partner) above
In experiment [7] the target is T4, ARAF monomer complex (ARAF/MEK1 SASA) (Homo sapiens, UniProt P10398). Description: TR-FRET MEK phosphorylation assay, bell-shaped fit. Format: biochemical.
T4 sequence (P10398 282-579): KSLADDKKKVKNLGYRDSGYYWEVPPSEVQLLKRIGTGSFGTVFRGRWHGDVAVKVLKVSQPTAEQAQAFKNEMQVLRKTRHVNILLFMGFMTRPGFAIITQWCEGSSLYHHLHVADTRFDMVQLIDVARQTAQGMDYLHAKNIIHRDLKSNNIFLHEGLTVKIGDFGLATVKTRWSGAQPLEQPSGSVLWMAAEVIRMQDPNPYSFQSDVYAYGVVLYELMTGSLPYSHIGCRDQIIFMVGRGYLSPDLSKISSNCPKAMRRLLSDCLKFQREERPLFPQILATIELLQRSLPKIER
T4 sequence (Q02750 whole entry S218A/S222A partner): as the sequence (Q02750 whole entry S218A/S222A partner) above
Experiment [8] deals with T4, ARAF monomer complex (ARAF/MEK1 SASA). Description: TR-FRET MEK phosphorylation assay, bell-shaped fit. Format: biochemical. This is another data set of the same source.
Experiment [9] has as its target T3, CRAF monomer complex (CRAF/MEK1 SASA). The experiment is described as follows: TR-FRET MEK phosphorylation assay, bell-shaped fit. The experiment is classed as biochemical. This is another data set of the same source.

T1 sequence (P10398 274-606 G300S/Y301D/Y302D): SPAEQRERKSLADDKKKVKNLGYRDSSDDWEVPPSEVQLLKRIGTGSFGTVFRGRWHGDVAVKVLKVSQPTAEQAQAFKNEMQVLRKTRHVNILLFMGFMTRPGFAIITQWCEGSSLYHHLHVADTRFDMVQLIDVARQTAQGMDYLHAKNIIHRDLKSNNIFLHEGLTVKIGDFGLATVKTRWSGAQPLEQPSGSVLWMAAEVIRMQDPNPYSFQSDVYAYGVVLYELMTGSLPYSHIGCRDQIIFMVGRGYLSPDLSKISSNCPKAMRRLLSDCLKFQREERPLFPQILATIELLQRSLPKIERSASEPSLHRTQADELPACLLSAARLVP
T1 sequence (Q02750 whole entry S218A/S222A partner): as the sequence (Q02750 whole entry S218A/S222A partner) above
T3 sequence (P04049 324-618): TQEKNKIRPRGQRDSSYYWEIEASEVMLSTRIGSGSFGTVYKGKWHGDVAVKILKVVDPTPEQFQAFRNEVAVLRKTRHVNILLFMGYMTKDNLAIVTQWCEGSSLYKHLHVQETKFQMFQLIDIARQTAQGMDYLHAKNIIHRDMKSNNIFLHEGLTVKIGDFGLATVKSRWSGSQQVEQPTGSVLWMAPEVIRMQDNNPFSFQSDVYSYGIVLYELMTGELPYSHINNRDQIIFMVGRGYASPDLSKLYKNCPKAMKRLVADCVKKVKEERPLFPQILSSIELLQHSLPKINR
T3 sequence (Q02750 whole entry S218A/S222A partner): as the sequence (Q02750 whole entry S218A/S222A partner) above

As for `Cc1ccc(NC(=O)c2ccnc(C(F)(F)F)c2)cc1-c1cc(OCCO)nc(N2CCOCC2)c1` [Naporafenib], the values for the IC50 in experiment [1] and in experiment [2] were 673 ± 488 nM and 79.2 ± 24.1 nM, respectively. Moreover, the AC50 (in general, the concentration at which the activity in the assay is half-maximal) worked out at 0.06 ± 0.04 nM in experiment [3] and 13.3 ± 5.15 nM in [4].

Turning to `Cc1ccc(NC(=O)c2cccc(C(C)(C)C#N)c2)cc1Nc1ccc2ncn(C)c(=O)c2c1` [AZ628], it took 44.4 ± 17.6 nM to reach half-maximal inhibition in [1] (IC50). This compound had an AC50 in experiment [4] of 1.72 ± 1.24 nM.

Regarding `Cc1ccc2c(Nc3cccc(Cl)c3F)nccc2c1NC(=O)c1csc2c(N)ncnc12` [Belvarafenib], half-maximal inhibition in [2] (IC50) required 34.6 ± 5.15 nM. The AC50 in experiment [3] stood at 0.07 ± 0.06 nM.

For `CN(C)CCOc1ccc(-c2nc(-c3ccncc3)c(-c3ccc4c(c3)CC/C4=N\O)[nH]2)cc1` [SB590885], the IC50 – broadly, the point on the concentration scale where inhibition reaches its midpoint – in experiment [5] was > 10000 nM; in experiment [6] it was 1915 ± 889 nM; in experiment [1], > 10000 nM; in [8], > 10000 nM; in experiment [2] it was > 10000 nM. For the same compound, the AC50 in experiment [7] was 11.7 ± 14.3 nM; in experiment [9], 242 ± 19.5 nM; in experiment [3], 3.46 ± 1.49 nM; in experiment [4], 7.62 ± 2.83 nM.
